Laboratory results taken from ChEMBL document CHEMBL3045967, “Discovery of imidazole glycerol phosphate dehydratase inhibitors through 3-D database searching” (Bioorg Med Chem Lett, 2002).
Calls of active or inactive are those of the source. No cut-off for these calls is given here.

Molecular target: Histidine biosynthesis bifunctional protein HisB (Escherichia coli O26:H11 str. CFSAN001629) (UniProt P06987)
Assay: (§1) Inhibition of Escherichia coli imidazoleglycerol phosphate dehydratase using imidazole glycerol phosphate as substrate incubated for 30 min prior to substrate addition measured for 16 min by spectrophotometric analysis

Sequence of Histidine biosynthesis bifunctional protein HisB (Escherichia coli O26:H11 str. CFSAN001629) (P06987 whole entry): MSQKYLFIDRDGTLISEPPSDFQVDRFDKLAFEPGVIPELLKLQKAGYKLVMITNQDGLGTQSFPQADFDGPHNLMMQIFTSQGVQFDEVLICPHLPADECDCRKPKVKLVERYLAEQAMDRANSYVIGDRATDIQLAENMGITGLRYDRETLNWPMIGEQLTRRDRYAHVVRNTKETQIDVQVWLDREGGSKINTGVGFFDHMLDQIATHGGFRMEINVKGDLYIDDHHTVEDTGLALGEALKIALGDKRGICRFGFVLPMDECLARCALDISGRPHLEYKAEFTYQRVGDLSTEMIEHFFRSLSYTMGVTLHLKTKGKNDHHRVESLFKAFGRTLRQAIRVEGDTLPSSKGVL

SMILES | inhibition
CCOC(=O)c1[nH]c(C)c(C(=O)OC)c1C | inactive

Molecular target: Histidine biosynthesis bifunctional protein HisB (Escherichia coli O26:H11 str. CFSAN001629, UniProt P06987)
Assay: as §1

Sequence of Histidine biosynthesis bifunctional protein HisB (P06987 whole entry): as above

SMILES | IC50
COC(=O)c1[nH]c(C=O)c(C(=O)OC)c1C(C)C | 8.3 µM
O=Cc1[nH]c(C(=O)OCc2ccccc2)c(Cc2ccccc2)c1Cc1ccccc1 | 4 µM
Cc1c(C=O)[nH]c(C=O)c1C | 7.1 µM
CCOC(=O)c1[nH]c(C=O)c(C(=O)OCC)c1C | 5.1 µM
CCc1c(C=O)[nH]c(C(=O)OCc2ccccc2)c1C | 24 µM
CCOC(=O)c1[nH]c(C=O)cc1C | 9.2 µM
CCOC(=O)c1[nH]c(C=O)c(C(=O)OCC)c1CC | 5.6 µM
CCOC(=O)c1[nH]c(C=O)c(C)c1C | 17.6 µM
CCOC(=O)CCc1c(C(=O)OCC)[nH]c(C=O)c1CC(=O)OCC | 12.6 µM
Cc1c(C=O)[nH]c(C(=O)OCc2ccccc2)c1C | 8.9 µM
